Laboratory results taken from PubChem BioAssay AID328 (DTP/NCI, 2004).
Values joined by “and” are separate entries in the source; they are usually repeats but may differ in a detail not shown here. Identical values can stand only once. Inconclusive results and toxic doses are left out.

System: BDF1 mice, P388 leukemia ip, median survival T/C
Assay: NCI In Vivo Anticancer Drug Screen. Data for tumor model P388 Leukemia (intraperitoneal) in B6D2F1 (BDF1) mice
Settings: endpoint: median survival time, higher = longer survival
Outline: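 Survival ratio, drug arm over vehicle arm, in mice with a transplanted tumour.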

[1] = dose: 50.0 mg/kg/injection, schedule: Q04DX003 (ip), vehicle: saline
[2] = dose: 25.0 mg/kg/injection, schedule: Q04DX003 (ip), vehicle: saline with Tween-80
[3] = dose: 50.0 mg/kg/injection, schedule: Q04DX003 (ip), vehicle: saline with Tween-80
[4] = dose: 200.0 mg/kg/injection, schedule: Q04DX003 (ip), vehicle: saline with Tween-80
[5] = dose: 100.0 mg/kg/injection, schedule: Q04DX003 (ip), vehicle: saline with Tween-80
[6] = dose: 5.0 mg/kg/injection, schedule: Q04DX003 (ip), vehicle: saline
[7] = dose: 50.0 mg/kg/injection, schedule: Q01DX009 (ip), vehicle: saline with Tween-80
[8] = dose: 100.0 mg/kg/injection, schedule: Q01DX009 (ip), vehicle: saline with Tween-80
[9] = dose: 200.0 mg/kg/injection, schedule: Q01DX009 (ip), vehicle: saline with Tween-80
[10] = dose: 400.0 mg/kg/injection, schedule: Q04DX003 (ip), vehicle: saline with Tween-80

OCCCN1CCC2(CC1)SSC1(CCN(CCCO)CC1)S2
T/C [1]: 95 % of control
T/C (dose: 100.0 mg/kg/injection, schedule: Q04DX003 (ip), vehicle: saline): 100 % of control and 109 % of control
T/C (dose: 200.0 mg/kg/injection, schedule: Q04DX003 (ip), vehicle: saline): 100 % of control and 104 % of control

COC1/C=C/O[C@@]2(C)Oc3c(C)c(O)c4c(O)c(cc(O)c4c3C2=O)NC(=O)/C(C)=C\C=C\[C@H](C)C(O)[C@@H](C)[C@@H](O)[C@@H](C)[C@H](OC(C)=O)[C@@H]1C (some centres undefined)
T/C (dose: 100.0 mg/kg/injection, schedule: Q01DX009 (ip), vehicle: saline): 123 % of control
T/C (dose: 200.0 mg/kg/injection, schedule: Q01DX009 (ip), vehicle: saline): 114 % of control
T/C (dose: 400.0 mg/kg/injection, schedule: Q01DX009 (ip), vehicle: saline): 119 % of control

COc1cc(C=NCCN=Cc2cc(OC)c(OC)c(OC)c2)cc(OC)c1OC
T/C (dose: 12.5 mg/kg/injection, schedule: Q04DX003 (ip), vehicle: saline with Tween-80): 111 % of control
T/C [2]: 107 % of control
T/C [3]: 92 % of control
T/C [4]: 95 % of control

C1O[C@@H]1[C@@H]1CO1
T/C (dose: 100.0 mg/kg/injection, schedule: Q01DX006 (ip), vehicle: water): 100 % of control
T/C (dose: 100.0 mg/kg/injection, schedule: Q01DX010 (ip), vehicle: water): 104 % of control and 120 % of control
T/C (dose: 200.0 mg/kg/injection, schedule: Q01DX006 (ip), vehicle: water): 100 % of control
T/C (dose: 200.0 mg/kg/injection, schedule: Q01DX010 (ip), vehicle: water): 150 % of control
T/C (dose: 225.0 mg/kg/injection, schedule: Q01DX010 (ip), vehicle: water): 113 % of control
T/C (dose: 300.0 mg/kg/injection, schedule: Q01DX006 (ip), vehicle: water): 100 % of control
T/C (dose: 300.0 mg/kg/injection, schedule: Q01DX010 (ip), vehicle: water): 100 % of control
T/C (dose: 335.0 mg/kg/injection, schedule: Q01DX010 (ip), vehicle: water): 90 % of control
T/C (dose: 400.0 mg/kg/injection, schedule: Q01DX006 (ip), vehicle: water): 100 % of control
T/C (dose: 400.0 mg/kg/injection, schedule: Q01DX010 (ip), vehicle: water): 86 % of control and 95 % of control
T/C (dose: 600.0 mg/kg/injection, schedule: Q01DX010 (ip), vehicle: water): 90 % of control

CCCCCCCCCCC(C(=O)O)C1(C(=O)O)CCC(=O)O1 (centres undefined)
T/C (dose: 50.0 mg/kg/injection, schedule: Q01DX009 (ip), vehicle: Klucel (hydroxypropylcellulose) (HPC)): 107 % of control
T/C (dose: 100.0 mg/kg/injection, schedule: Q01DX009 (ip), vehicle: Klucel (hydroxypropylcellulose) (HPC)): 107 % of control
T/C (dose: 200.0 mg/kg/injection, schedule: Q01DX009 (ip), vehicle: Klucel (hydroxypropylcellulose) (HPC)): 98 % of control

CCN(CC)CCOc1cccc(C)c1C
T/C [2]: 96 % of control
T/C [3]: 100 % of control
T/C [5]: 116 % of control

CCC[N+](CCC)(CCC)CCC.N#CN=C([SH2+])[SH2+].N#CN=C([SH2+])[SH2+].[Pt+2]
T/C [1]: 100 % of control

C/C=C/c1ccc2ccc[n+](C)c2c1O
T/C (dose: 22.0 mg/kg/injection, schedule: Q04DX003 (ip), vehicle: saline sonified): 100 % of control
T/C (dose: 25.0 mg/kg/injection, schedule: Q04DX003 (ip), vehicle: saline sonified): 110 % of control
T/C (dose: 33.0 mg/kg/injection, schedule: Q04DX003 (ip), vehicle: saline sonified): 113 % of control
T/C (dose: 75.0 mg/kg/injection, schedule: Q04DX003 (ip), vehicle: saline sonified): 118 % of control

CCCCCCCCCCCCCCCCOc1c(Br)cc(Br)cc1Br
T/C (dose: 50.0 mg/kg/injection, schedule: Q01DX001 (ip), vehicle: saline with Tween-80): 90 % of control

CO[C@@]12[C@H](COC(N)=O)C3=C(C(=O)C(C)=C(N)C3=O)N1C[C@@H]1N[C@@H]12
T/C (dose: 0.03 mg/kg/injection, schedule: Q01DX010 (ip), vehicle: water): 100 % of control
T/C (dose: 0.06 mg/kg/injection, schedule: Q01DX010 (ip), vehicle: saline): 123 % of control
T/C (dose: 0.06 mg/kg/injection, schedule: Q01DX010 (ip), vehicle: water): 115 % of control
T/C (dose: 0.13 mg/kg/injection, schedule: Q01DX010 (ip), vehicle: water): 168 % of control
T/C (dose: 0.25 mg/kg/injection, schedule: Q01DX010 (ip), vehicle: saline): 159 % of control and 161 % of control
T/C (dose: 0.25 mg/kg/injection, schedule: Q01DX010 (ip), vehicle: water): 200 % of control
T/C (dose: 0.5 mg/kg/injection, schedule: Q01DX010 (ip), vehicle: saline): 166 % of control and 213 % of control
T/C (dose: 0.5 mg/kg/injection, schedule: Q01DX010 (ip), vehicle: water): 242 % of control
T/C (dose: 1.0 mg/kg/injection, schedule: Q01DX010 (ip), vehicle: saline): 250 % of control and 180 % of control
T/C (dose: 1.0 mg/kg/injection, schedule: Q01DX010 (ip), vehicle: water): 215 % of control
T/C (dose: 1.08 mg/kg/injection, schedule: Q04DX003 (ip), vehicle: saline): 194 % of control and 196 % of control
T/C (dose: 1.8 mg/kg/injection, schedule: Q04DX003 (ip), vehicle: saline): 243 % of control and 222 % of control
T/C (dose: 2.0 mg/kg/injection, schedule: Q01DX010 (ip), vehicle: saline): 90 % of control and 114 % of control
T/C (dose: 2.0 mg/kg/injection, schedule: Q01DX010 (ip), vehicle: water): 105 % of control
T/C (dose: 3.0 mg/kg/injection, schedule: Q04DX003 (ip), vehicle: saline): 236 % of control and 244 % of control
T/C (dose: 4.0 mg/kg/injection, schedule: Q01DX001 (ip), vehicle: saline): 157 % of control
T/C [6]: 90 % of control and 112 % of control
T/C (dose: 6.0 mg/kg/injection, schedule: Q01DX001 (ip), vehicle: saline): 176 % of control
T/C (dose: 8.0 mg/kg/injection, schedule: Q01DX001 (ip), vehicle: saline): 176 % of control

NCCCCC1NC(=O)C(CCCCN)NC1=O (centres undefined)
T/C (dose: 50.0 mg/kg/injection, schedule: Q01DX005 (ip), vehicle: saline): 105 % of control
T/C (dose: 100.0 mg/kg/injection, schedule: Q01DX005 (ip), vehicle: saline): 105 % of control
T/C (dose: 200.0 mg/kg/injection, schedule: Q01DX005 (ip), vehicle: saline): 95 % of control

[O-][N+](=Nc1cccc(Cl)c1)c1cccc(Cl)c1
T/C [7]: 93 % of control
T/C (dose: 66.0 mg/kg/injection, schedule: Q01DX009 (ip), vehicle: saline with Tween-80): 89 % of control
T/C [8]: 93 % of control
T/C (dose: 150.0 mg/kg/injection, schedule: Q01DX009 (ip), vehicle: saline with Tween-80): 90 % of control
T/C [9]: 94 % of control

CC(C)CSc1ncnc2nc[nH]c12
T/C (dose: 25.0 mg/kg/injection, schedule: Q01DX009 (ip), vehicle: saline with Tween-80): 90 % of control
T/C [7]: 100 % of control
T/C [8]: 104 % of control and 122 % of control
T/C [5]: 104 % of control
T/C [4]: 86 % of control
T/C [10]: 86 % of control

CCSc1ncc(Br)c(Sc2nc(N)nc3nc[nH]c23)n1
T/C [5]: 86 % of control

CCOC(=O)c1c(NC(C)=O)sc2c1CCCC2
T/C [7]: 104 % of control
T/C [3]: 90 % of control
T/C [8]: 100 % of control
T/C [5]: 104 % of control
T/C [9]: 100 % of control
T/C [4]: 100 % of control

CCCC(=O)Nc1ccc(N)cc1OC
T/C (dose: 5.0 mg/kg/injection, schedule: Q01DX009 (ip), vehicle: saline): 100 % of control
T/C [6]: 91 % of control
T/C (dose: 10.0 mg/kg/injection, schedule: Q01DX009 (ip), vehicle: saline): 100 % of control
T/C (dose: 10.0 mg/kg/injection, schedule: Q04DX003 (ip), vehicle: saline): 100 % of control
T/C (dose: 20.0 mg/kg/injection, schedule: Q01DX009 (ip), vehicle: saline): 100 % of control
T/C (dose: 20.0 mg/kg/injection, schedule: Q04DX003 (ip), vehicle: saline): 91 % of control

CC1(C)N=C(N)N=C(N)N1c1ccc(Cl)c(Cl)c1
T/C (dose: 7.2 mg/kg/injection, schedule: Q01DX009 (ip), vehicle: Klucel (hydroxypropylcellulose) (HPC)): 122 % of control
T/C (dose: 16.0 mg/kg/injection, schedule: Q01DX009 (ip), vehicle: Klucel (hydroxypropylcellulose) (HPC)): 181 % of control
T/C (dose: 20.0 mg/kg/injection, schedule: Q04DX003 (ip), vehicle: Klucel (hydroxypropylcellulose) (HPC)): 120 % of control
T/C (dose: 22.5 mg/kg/injection, schedule: Q01DX009 (ip), vehicle: Klucel (hydroxypropylcellulose) (HPC)): 172 % of control
T/C (dose: 26.0 mg/kg/injection, schedule: Q04DX003 (ip), vehicle: Klucel (hydroxypropylcellulose) (HPC)): 154 % of control
T/C (dose: 30.0 mg/kg/injection, schedule: Q01DX009 (ip), vehicle: Klucel (hydroxypropylcellulose) (HPC)): 95 % of control
T/C (dose: 40.0 mg/kg/injection, schedule: Q04DX003 (ip), vehicle: Klucel (hydroxypropylcellulose) (HPC)): 231 % of control and 158 % of control

CC1CCC2C(C1)N(C(C)C)OC2(C)C (centres undefined)
T/C [5]: 109 % of control
T/C [4]: 100 % of control
T/C [10]: 90 % of control
